# Measured values published in patent publication US20260217701A1, “SELECTIVE BET INHIBITORS AND USES THEREOF” (Tay Therapeutics Limited, priority 2022, published 2026).
# Where “and” joins values, the source holds several entries; their conditions need not be identical. Equal entries are not always repeated.
# System: collagen-induced arthritis
# Assay: Collagen-induced arthritis (CIA) model: clinical scores and paw volume; on Animal paw volume percent change (%): reference of the scale not given here; on Average animal paw volume percent change (%): reference of the scale not given here
# Type: in vivo, Lewis rats
# Settings: for Animal paw volume percent change (%) / Animal paw volume / clinical score left forelimb / clinical score right forelimb / clinical score right hind limb / clinical score, score (all limbs) / clinical score left hind limb: individual animals; for Average detailed clinical score, left forelimb / Average detailed clinical score, left hind limb / Average detailed clinical score, right forelimb / Average detailed clinical score, right hind limb / Average detailed clinical score, score / Average overall clinical score / Overall Clinical Score / Animal paw volume: Day 21; for Overall Clinical Score: individual animals 1-8
# [1] = Day 21, R paw, group 7 CIA + Compound A 10 mg/kg
# [2] = group 5 CIA + Compound A 1 mg/kg, 2nd section of table, 1st day (between Day 12 and Day 18)
# [3] = group 5 CIA + Compound A 1 mg/kg, 2nd section of table, 1st day (between Day 12 and Day 18), 1 mg/kg
# [4] = group 5 CIA + Compound A 1 mg/kg, 2nd section of table, 2nd day (between Day 12 and Day 18)
# [5] = group 5 CIA + Compound A 1 mg/kg, 2nd section of table, 2nd day (between Day 12 and Day 18), 1 mg/kg
# [6] = group 5 CIA + Compound A 1 mg/kg, 2nd section of table, 3rd day (between Day 12 and Day 18)
# [7] = group 5 CIA + Compound A 1 mg/kg, 2nd section of table, 3rd day (between Day 12 and Day 18), 1 mg/kg
# [8] = group 5 CIA + Compound A 1 mg/kg, Day 18
# [9] = group 5 CIA + Compound A 1 mg/kg, Day 18, 1 mg/kg
# [10] = group 5 CIA + Compound A 1 mg/kg, Day 19
# [11] = group 5 CIA + Compound A 1 mg/kg, Day 19, 1 mg/kg
# [12] = group 5 CIA + Compound A 1 mg/kg, Day 20
# [13] = group 5 CIA + Compound A 1 mg/kg, Day 20, 1 mg/kg
# [14] = group 6 CIA + Compound A 3 mg/kg, 2nd section of table, 1st day (between Day 12 and Day 18)
# [15] = group 6 CIA + Compound A 3 mg/kg, 2nd section of table, 2nd day (between Day 12 and Day 18)
# [16] = group 6 CIA + Compound A 3 mg/kg, 2nd section of table, 2nd day (between Day 12 and Day 18), 3 mg/kg
# [17] = group 6 CIA + Compound A 3 mg/kg, 2nd section of table, 3rd day (between Day 12 and Day 18)
# [18] = group 6 CIA + Compound A 3 mg/kg, 2nd section of table, 3rd day (between Day 12 and Day 18), 3 mg/kg
# [19] = group 6 CIA + Compound A 3 mg/kg, Day 18
# [20] = group 6 CIA + Compound A 3 mg/kg, Day 18, 3 mg/kg
# [21] = group 6 CIA + Compound A 3 mg/kg, Day 19
# [22] = group 6 CIA + Compound A 3 mg/kg, Day 19, 3 mg/kg
# [23] = group 6 CIA + Compound A 3 mg/kg, Day 20
# [24] = group 6 CIA + Compound A 3 mg/kg, Day 20, 3 mg/kg
# [25] = group 7 CIA + Compound A 10 mg/kg, 2nd section of table, 1st day (between Day 12 and Day 18), 10 mg/kg
# [26] = group 7 CIA + Compound A 10 mg/kg, 2nd section of table, 2nd day (between Day 12 and Day 18)
# [27] = group 7 CIA + Compound A 10 mg/kg, 2nd section of table, 2nd day (between Day 12 and Day 18), 10 mg/kg
# [28] = group 7 CIA + Compound A 10 mg/kg, 2nd section of table, 3rd day (between Day 12 and Day 18)
# [29] = group 7 CIA + Compound A 10 mg/kg, 2nd section of table, 3rd day (between Day 12 and Day 18), 10 mg/kg
structure (smiles),measurement,setting,value
"Cn1cc(-c2ccccc2)c(-c2cn(C)c(=O)c3[nH]c(-c4cnn(C(F)(F)F)c4)cc23)cc1=O [Compound A, 6-methyl-4-(1-methyl-2-oxo-5-phenyl-1,2-dihydropyridin-4-yl)-2-(1-(trifluoromethyl)-1H-pyrazol-4-yl)-1,6-dihydro-7H-pyrrolo[2,3-c]pyridin-7-one]",Average animal paw volume percent change (%),"Day 21, R paw, group 6 CIA + Compound A 3 mg/kg",38.15%
same,Average animal paw volume,[1],1.81 mL
same,Average animal paw volume percent change (%),[1],38.27%
same,Animal paw volume percent change (%),"Day 21, R paw, group 5 CIA + Compound A 1 mg/kg, 1 mg/kg",73.56% and 88.03% and 50.91% and 70.19% and 18.45% and 55.51% and 49.81%
same,Animal paw volume percent change (%),"Day 21, R paw, group 6 CIA + Compound A 3 mg/kg, 3 mg/kg",64.91% and 27.24% and 46.04% and 29.74% and 60.23%
same,"Average detailed clinical score, left forelimb",CIA + Compound A 1 mg/kg,1.00
same,"Average detailed clinical score, left hind limb",CIA + Compound A 1 mg/kg,4.00
same,"Average detailed clinical score, right forelimb",CIA + Compound A 1 mg/kg,1.00
same,"Average detailed clinical score, right hind limb",CIA + Compound A 1 mg/kg,3.75
same,"Average detailed clinical score, score",CIA + Compound A 1 mg/kg,9.75
same,Average overall clinical score,CIA + Compound A 1 mg/kg,5
same,Overall Clinical Score,"CIA + Compound A 1 mg/kg, 1 mg/kg",0 and 6 (5×) and 8 and 2
same,"Average detailed clinical score, left forelimb",CIA + Compound A 3 mg/kg,0.00
same,"Average detailed clinical score, left hind limb",CIA + Compound A 3 mg/kg,2.50
same,"Average detailed clinical score, right forelimb",CIA + Compound A 3 mg/kg,1.25
same,"Average detailed clinical score, right hind limb",CIA + Compound A 3 mg/kg,2.75
same,"Average detailed clinical score, score",CIA + Compound A 3 mg/kg,6.50
same,Average overall clinical score,CIA + Compound A 3 mg/kg,4
same,Overall Clinical Score,"CIA + Compound A 3 mg/kg, 3 mg/kg",5 (2×) and 3 (2×)
same,"Average detailed clinical score, left forelimb",CIA + Compound A 10 mg/kg,0.00
same,"Average detailed clinical score, left hind limb",CIA + Compound A 10 mg/kg,1.88
same,"Average detailed clinical score, right forelimb",CIA + Compound A 10 mg/kg,0.13
same,"Average detailed clinical score, right hind limb",CIA + Compound A 10 mg/kg,1.63
same,"Average detailed clinical score, score",CIA + Compound A 10 mg/kg,3.63
same,Average overall clinical score,CIA + Compound A 10 mg/kg,4
same,Animal paw volume,"L paw, Group 5 (CIA + Compound A 1 mg/kg), 1 mg/kg",2.05 mL and 2.45 mL and 2.08 mL (2×) and 2.27 mL and 1.64 mL and 2.15 mL
same,Animal paw volume,"L paw, Group 6 (CIA + Compound A 3 mg/kg), 3 mg/kg",1.92 mL and 2.19 mL and 1.64 mL and 1.52 mL and 1.80 mL
same,Animal paw volume,"R paw, Group 5 (CIA + Compound A 1 mg/kg), 1 mg/kg",2.27 mL and 2.44 mL and 2.08 mL and 2.26 mL and 1.61 mL and 2.05 mL and 1.99 mL
same,Animal paw volume,"R paw, Group 6 (CIA + Compound A 3 mg/kg), 3 mg/kg",2.19 mL and 1.64 mL and 1.94 mL and 1.75 mL and 2.08 mL
same,clinical score left forelimb,[2],0
same,clinical score right forelimb,[2],0
same,clinical score right hind limb,[3],0 (6×) and 1 (2×)
same,"clinical score, score (all limbs)",[3],0 (6×) and 2 and 1
same,clinical score left forelimb,[4],0
same,clinical score right forelimb,[4],0
same,clinical score left hind limb,[5],0 (5×) and 2 and 1 (2×)
same,clinical score right hind limb,[5],0 (5×) and 1 (3×)
same,"clinical score, score (all limbs)",[5],0 (3×) and 2 (2×) and 1 (3×)
same,clinical score left forelimb,[6],0
same,clinical score right forelimb,[6],0
same,clinical score left hind limb,[7],0 (3×) and 2 (3×) and 1 (2×)
same,clinical score right hind limb,[7],0 (3×) and 2 (2×) and 1 (3×)
same,"clinical score, score (all limbs)",[7],0 (3×) and 4 and 3 (3×) and 2
same,clinical score left forelimb,[8],0
same,clinical score right forelimb,[8],0
same,clinical score left hind limb,[9],0 and 2 (3×) and 4 and 3 (2×) and 1
same,clinical score right hind limb,[9],0 and 3 (4×) and 2 (2×) and 1
same,"clinical score, score (all limbs)",[9],0 and 5 (3×) and 7 and 6 and 2 and 4
same,clinical score left forelimb,[10],0
same,clinical score right forelimb,[10],0
same,clinical score left hind limb,[11],0 and 3 (5×) and 4 and 1
same,clinical score right hind limb,[11],0 and 3 (5×) and 4 and 2
same,"clinical score, score (all limbs)",[11],0 and 6 (5×) and 8 and 3
same,clinical score left forelimb,[12],0
same,clinical score right forelimb,[12],0
same,clinical score left hind limb,[13],0 and 3 (5×) and 4 and 1
same,clinical score right hind limb,[13],0 and 3 (5×) and 4 and 1
same,"clinical score, score (all limbs)",[13],0 and 6 (5×) and 8 and 2
same,clinical score left forelimb,[14],0
same,clinical score right forelimb,[14],0
same,clinical score left forelimb,[15],0
same,clinical score right forelimb,[15],0
same,clinical score left hind limb,[16],0 (6×) and 1 (2×)
same,"clinical score, score (all limbs)",[16],0 (6×) and 1 and 3
same,clinical score left forelimb,[17],0
same,clinical score right forelimb,[17],0
same,clinical score left hind limb,[18],0 (4×) and 1 (4×)
same,clinical score right hind limb,[18],0 (5×) and 2 and 1 (2×)
same,"clinical score, score (all limbs)",[18],0 (4×) and 1 and 3 and 2 (2×)
same,clinical score left forelimb,[19],0
same,clinical score right forelimb,[19],0
same,clinical score left hind limb,[20],2
same,clinical score right hind limb,[20],2
same,"clinical score, score (all limbs)",[20],4
same,clinical score left forelimb,[21],0
same,clinical score right forelimb,[21],0
same,clinical score left hind limb,[22],2
same,clinical score right hind limb,[22],3 and 2
same,"clinical score, score (all limbs)",[22],5 and 4
same,clinical score left forelimb,[23],0
same,clinical score right forelimb,[23],0
same,clinical score left hind limb,[24],2 and 3
same,clinical score right hind limb,[24],3
same,"clinical score, score (all limbs)",[24],5
same,clinical score left forelimb,"group 7 CIA + Compound A 10 mg/kg, 2nd section of table, 1st day (between Day 12 and Day 18)",0
same,clinical score left hind limb,[25],0 (7×) and 1
same,clinical score right hind limb,[25],0 (6×) and 1 (2×)
same,"clinical score, score (all limbs)",[25],0 (6×) and 1 and 3
same,clinical score left forelimb,[26],0
same,clinical score right forelimb,[26],0
same,clinical score left hind limb,[27],0 (6×) and 1 (2×)
same,clinical score right hind limb,[27],0 (6×) and 2 and 1
same,"clinical score, score (all limbs)",[27],0 (5×) and 1 and 2 (2×)
same,clinical score left forelimb,[28],0
same,clinical score right forelimb,[28],0
same,clinical score left hind limb,[29],1 (2×) and 0 (4×) and 2 (2×)
same,clinical score right hind limb,[29],1 (2×) and 0 (5×) and 2
same,"clinical score, score (all limbs)",[29],2 and 0 (4×) and 1 and 4 and 3
